Results taken from the METLIN SMRT retention time set (Domingo-Almenara et al. 2019).

Assay: gradient 5% acetonitrile 3 min, to 50% in 2 min, to 85% in 15 min, held 3 min, 100 µL/min
Settings: column: Zorbax Extend-C18 2.1 x 50 mm; eluents: water / acetonitrile, 0.1% formic acid
In short: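 Data were gathered over 3 months by HPLC coupled to a quadrupole time-of-flight mass spectrometer, operated in positive and negative ionization mode. Mixtures of ~100 pure standards ran on a Zorbax Extend-C18 column (2.1 × 50 mm, 1.8 μm) at 100 μL/min, with water and acetonitrile each containing 0.1% formic acid and dead and dwell volumes of 40 μL and 900 μL. Retention time was read from adduct peaks picked by computer and checked manually.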

Compound	RP-LC retention time [s]
COc1ccc(OC)c(S(=O)(=O)Nc2ccc3c(c2)CCC(=O)N3C)c1	675
CCOc1ccccc1NC(=O)N1CCN(c2cc(C)nc(N3CCOCC3)n2)CC1	631
CC(C)CC(=O)N1CCN(c2nc(CN3CCC(C)CC3)cs2)CC1	634
CCN(CC)S(=O)(=O)c1ccc2c(c1)CC(C(=O)NC1CCCCC1)N2C(C)=O (stereo not given)	839
CCNC(=O)N1CCCC(c2cccc(C(=O)NC3CCCCCC3)c2)C1 (stereo not given)	876
CCCC(=O)N1CC(c2nc(-c3ccccc3)no2)C2(CCOCC2)C1 (stereo not given)	850
O=C(c1ccccc1F)N1CCC(C(=O)N2CCc3ccccc32)CC1	822
CN(CC1CCOC1)C(=O)c1cccc(Br)c1 (stereo not given)	718
O=C(c1ccoc1)N1CCCC1Cc1noc(-c2cnccn2)n1 (stereo not given)	686
O=C(NC1CC1)C1CCN(c2nc3ccc(-c4ccccc4)nc3s2)CC1	865
O=S(=O)(c1ccc(-c2cc(C(F)(F)F)on2)s1)N1CCN(c2ccccn2)CC1	883
COCCN1C(=O)Cc2ccccc2C1C(=O)NC(C)C (stereo not given)	652
O=C(C1CCCN(c2nccnc2Sc2ccccc2)C1)N1CCCCCC1 (stereo not given)	1120
CC(C)C(=O)NCCc1csc(C2CCCN(C(=O)C3CCC3)C2)n1 (stereo not given)	711
CCOC(=O)c1[nH]c2ccc(OC)cc2c1NC(=O)CN(C)C	575
O=C(NC1CCc2nnc(C3CC3)n2CC1)c1ccsc1 (stereo not given)	594
Cc1cccc(OCC(=O)N2CCN(c3cc(C)n4c(C)nnc4n3)CC2)c1	614
Cc1ccc(OCCC2CCNC2)cc1 (stereo not given)	646
Cn1cc(S(=O)(=O)N2CCC(C(=O)NC3CC3)CC2)cc1C(=O)N1CCCC1	641
CC(C)(C)c1ccc(OCC(O)CN2CCN(C(=O)c3ccccc3)CC2)cc1 (stereo not given)	608

Compound	RP-LC retention time [s]
Cc1nn(C)c(C)c1S(=O)(=O)N1CCC(OCCOCc2ccccc2)CC1	896
Cc1ccc(NC(=O)C2CCN(S(=O)(=O)c3c(C)[nH]c(C)c3C(=O)N3CCCC3)CC2)cc1F	753
CC(C)(C)c1ccc(/C=C/C(=O)Nc2ccc3c(c2)OCCO3)cc1	1190
CCN(CC)CCOC(=O)c1cc(Cl)c(N)cc1OC	647
COc1ccccc1-c1noc(-c2nc(C)no2)n1	877
CS(=O)(=O)N1CCN(C(=O)CCC2CCN(c3cc(NC4CC4)ncn3)CC2)CC1	606
COCC(=O)N(CC(=O)N1CCc2sccc2C1COc1ccc(C)cc1)C(C)C (stereo not given)	867
CCN(CC)C(=O)C1CCN(S(C)(=O)=O)c2cc(Cl)ccc2O1 (stereo not given)	821
CC(C)CC(=O)N1CCC(C(=O)N2CCCCCCNC(=O)CC2)CC1	640
Cc1noc(C)c1CCC(=O)N1CCN(c2c(C)nn(C3CCS(=O)(=O)C3)c2C)CC1 (stereo not given)	650
O=C(CC1c2ncccc2C(=O)N1c1ccccc1)N1CCN(c2ccccn2)CC1 (stereo not given)	683
COc1ccc(CC(=O)N2CCC3(C2)C(=O)N(C)c2ccc(OC)cc23)c(Cl)c1 (stereo not given)	825
CCCCNC(=O)C1CCN(S(C)(=O)=O)c2ccccc2O1 (stereo not given)	728
Cc1ccc(NC(=O)N2CCC(c3nc(C(=O)N4CCCC4)c(C)o3)CC2)cc1Cl	895
O=C(Nc1ccc(F)c(Cl)c1)C1CCCN(c2ncnc3c2nc2n3CCCCC2)C1 (stereo not given)	917
Cc1ccc(C)c(N2CCN(S(=O)(=O)c3cc(-c4csc(C)n4)sc3C)CC2)c1	1360
CCc1nc2onc(C)c2c(=O)n1CC(=O)NCCC1=CCCCC1	899
O=C(c1cccc2c1CCN2C(=O)C1CC1)N1CCCCC1	746
Cc1ncc2c(n1)CCCN(CC(=O)NC1CCCCCC1)C2=O	682
Cc1cccc(S(=O)(=O)N(C)CC2CCOC2)c1 (stereo not given)	811

Other lines, results leading:

RP-LC retention time [s]	Compound
611	O=C(NCCc1ccco1)c1ccc2c(c1)nc1n2CCCCC1
712	CN(C(=O)CSc1nnc(-c2cn(C)nc2-c2ccccc2)n1C)c1ccccc1
744	CC(NC(=O)COc1ccc(NC(=O)C2CC2)cn1)c1ccccc1 (stereo not given)
799	CCc1ccc(OCC(=O)Nc2nnc(C3CC(=O)N(c4ccccc4)C3)o2)cc1 (stereo not given)
769	COc1cc(OC)cc(-c2nc(-c3ccc(-n4ccnc4)nc3)no2)c1
1050	C=CCN1C(=O)COc2ccc(-c3csc(NC(=O)c4ccc(C)cc4)n3)cc21
1080	COc1ccccc1N1CCN(c2cc(SCC(=O)NCCC3=CCCCC3)ncn2)CC1
790	COc1ccc(OC)c(NC(=O)CN2C(=O)NC(c3ccc(Cl)cc3)C3=C2COC3=O)c1 (stereo not given)
1260	Cc1ccc(Sc2nccnc2N2CCCC(C(=O)Nc3ccc(C)c(F)c3)C2)cc1 (stereo not given)
753	O=C(NCc1cccs1)c1cc2n(n1)CCCC2
604	O=C(NCCc1ccccc1)N(C1CCOCC1)C1CCN(Cc2cccnc2)CC1
882	CN(C)C(=O)c1ccc(-n2nc(C(F)(F)F)c3c2CCCC3)cc1
982	COc1ccc(-c2noc(Cn3cnc4c(cnn4-c4ccc(OC)cc4)c3=O)n2)cc1
1030	Cc1ccc(NC(=O)Nc2ccc3c(c2)CCN3S(=O)(=O)c2ccccc2)cc1C
590	Cn1c(C(=O)NC2CC2)cc2c1CCN(Cc1ccc(F)cc1)C2
656	COCc1nc(-c2ccc(OC3CN(Cc4ccsc4)C3)cc2)no1
1220	O=C(NCc1cccc(Cl)c1)c1c(O)c2cccnc2n(-c2ccccc2)c1=O
1080	O=c1ccc(-c2ccccc2)nn1Cc1nc(-c2ccc(Cl)cc2)no1
998	Cc1nc(-c2ccccc2)cc2nn(CC(=O)Nc3cc(F)cc(F)c3)c(=O)n12
830	Cc1ccc(CNc2nnc(-c3nnc(C)o3)c3ccccc23)cc1
621	CCCNC(=O)C1CCN(c2ccc(SCC(=O)NCc3ccc(OC)cc3)nn2)CC1
977	O=C(O)Cc1sc(Nc2ccc(F)c(F)c2F)nc1-c1ccccc1
866	CCOC(=O)c1c(C)[nH]c(C(=O)N2CCCC(C(=O)NCCc3ccc(OCC)cc3)C2)c1C (stereo not given)
796	O=C(Cn1nc(S(=O)(=O)c2ccccc2)ccc1=O)Nc1ccc2c(c1)OCO2
933	CCc1nn(C)c(=O)c2cc(S(=O)(=O)NCc3ccc(F)c(Cl)c3)cn12

RP-LC retention time [s]	Compound
867	CCCN1C(=O)c2c(C(=O)NCCCc3ccccc3)ncn2CC1(C)C(=O)NC1CCCC1 (stereo not given)
1000	CSc1ccccc1NC(=O)CCCn1cccc1
702	Cc1ccc(CS(=O)(=O)Nc2ccc3c(c2)nc(-c2ccc(C(=O)NC(C)C)cc2)n3C)cc1
1110	COc1ccccc1N1CCN(c2cc(SCC(=O)Nc3cccc(Cl)c3C)ncn2)CC1
1320	CCN(C(=O)Cc1ccccc1)c1nc(-c2ccc(C)cc2)cs1
1020	Cc1cccc(NC(=O)C2CCCN(c3nc4ccsc4c(=O)n3-c3cccc(C)c3)C2)c1 (stereo not given)
776	CSc1cccc(NC(=O)N2CCN(Cc3nc4ccc(C)cc4o3)CC2)c1
896	Cc1ccc(CCNC(=O)C2CCCN2S(=O)(=O)c2ccc3c(c2)C(C)(C)C(=O)N3C)cc1 (stereo not given)
933	CCS(=O)(=O)Nc1ccc(C2(C(=O)NCc3cccc(F)c3)CCCCC2)cc1
1310	CCCCOc1ccc(-c2nc(C3CC(=O)N(c4ccc(C)cc4)C3)no2)cc1 (stereo not given)
748	O=C1[C@H]2CN(Cc3ccc(F)cc3)C[C@H]2C(=O)N1CCc1ccccc1
682	CC(C)N(CCCNC(=O)c1cc2sccc2n1C)Cc1ccccc1
917	CCOC(=O)c1cnc2nc(-c3ccccc3)nn2c1C
669	CSc1ccc(Cl)c(C(=O)Nc2ccc3c(N4CCOCC4)ncnc3c2)c1
867	CCOC(=O)CNC(=O)N1CCN(c2nc3ccccc3n(Cc3ccccc3)c2=O)CC1
925	Cc1ccc2[nH]cc(CCN3CC(C(=O)Nc4ccc5c(c4)CCC5)CC3=O)c2c1 (stereo not given)
951	COc1ccc(NC(=O)Cn2cccc2-c2nnc(C3CCC3)o2)cc1Cl
622	O=C(C1=C(O)C(=O)N(CCCn2ccnc2)C1c1ccc(F)cc1)c1cc2ccccc2o1 (stereo not given)
873	O=C(NCCc1ccco1)c1ccc2cnn(Cc3ccc(F)cc3)c2c1
1070	O=c1c2sccc2n(Cc2nc(-c3ccc(Cl)cc3)no2)c(=O)n1-c1ccccc1F
1010	Cc1ccsc1C(=O)Nc1ccc(OCc2nnc(-c3ccc(Cl)cc3)o2)cc1
765	Cc1cccc(NC(=O)C(C)n2cnc3nc4c(cc3c2=O)CCCC4)c1C (stereo not given)
830	COc1ccc(-c2nc3cnccn3c2Nc2ccc(Cl)cc2)cc1OC
773	O=C(NC1CCN(c2ccccc2)C1=O)c1ccc(Br)o1 (stereo not given)
722	COc1ccc(C(C)NC(=O)CCc2nnc3c4cc(-c5ccc(F)cc5)nn4ccn23)cc1OC (stereo not given)
